Here are results for three molecules from patent US12297235B2, “Synthetic peptide compounds and methods of use” (REALTA HOLDINGS, LLC, priority 2015, dated 2025).

The subject of one data set is HSV-1. As to the kind of experiment: HSV-1-GFP infection of CV-1 cells, flow cytometry. The format is cell-based. The following applies: 16 hours. How it is done: CV-1 cells were infected with HSV-1-GFP for 16 hours. Post-infection, CV-1 cells were detected by flow cytometry (FIG. 33). […] Acyclovir (the standard of care for severe HSV-1 infections) was also added as a control at the same molar ratio.

A further data set in a line: Solubility in water. The format is physicochemical. The note with it: Table 7, PEGylated and Sar/Ala substitution peptides.
The format of data set [1] is biochemical, human. The following applies: 0.77 mM peptide in factor B-depleted serum; standardized to water or DMSO; Table 6. The method, then:
(§1) Peptides were diluted to 0.77 mM in factor B-depleted human sera (Complement Technologies, Inc.) and incubated for 1 hour at 37° C. These peptides were then diluted with GVBS^++ to equal 2.5% serum, of which 0.25 ml was combined with 0.4 ml of GVBS^++ and 0.1 ml of sensitized sheep red blood cells (RBCs) and again incubated for 1 hour at 37° C. The procedure was stopped by the addition of 4.0 ml of GVBS^−− centrifuged for 5 minutes at 1,620×g, and the absorbance of the supernatants was read at 412 nm in a spectrophotometer. The percent lysis of each sample was standardized to that of the serum only control.
(§2) The final concentration of peptide in factor B-depleted serum was 0.77 mM. Each peptide was evaluated in triplicate and the mean values are reported. […] In the hemolytic assay, soluble peptides are standardized to water and insoluble peptides standardized to DMSO.
(§3) Polar Assortant peptides were serially diluted in undiluted factor B-depleted human sera (Complement Technologies, Inc.) and incubated for 1 hour at 37° C. Water, GVBS^++ and DMSO were included as controls. These peptides were then diluted with GVBS^++ to equal 2.5% serum, of which 0.25 ml was combined with 0.4 ml of GVBS^++ and 0.1 ml of sensitized sheep red blood cells (RBCs) and again incubated for 1 hour at 37° C. The procedure was stopped by the addition of 4.0 ml of GVBS^−−, centrifuged for 5 minutes at 1,620×g, and the absorbance of the supernatants was read at 412 nm in a spectrophotometer. The percent lysis of each sample was standardized to that of the serum only control.
(§4) The final concentration of peptide in factor B-depleted serum was 0.77 mM. […] In the hemolytic assay, soluble peptides were standardized to water and insoluble peptides standardized to DMSO.
(§5) The final concentration of peptide in factor B-depleted serum was 0.77 mM. […] In the hemolytic assay, soluble peptides are standardized to water and insoluble peptides standardized to DMSO.

For data set [2], the system named is complement activation in factor B-depleted human sera. The format is biochemical. The note with it: 0.77 mM peptide in factor B-depleted serum; standardized to water or DMSO; Table 7. How it is done: as §1, §2, §3, §4, §5
The conditions of data set [3]: 40 mg [160 mg/kg] i.v.
From the text: Eight animals were sacrificed at day 3, and ten were sacrificed at day 14.
The nature of data set [4]: Complement-mediated hemolysis of type B erythrocytes by type O donor plasma (ATR in vitro model). The format is biochemical, human. The note with it: highly hemolytic type-O plasma, dose-response, maximum. How it is done: Plasma from both donors were diluted with GVBS++ (veronal buffered saline with 0.1% gelatin, 0.15 mM CaCl2 and 1 mM MgCl2) and incubated with purified erythrocytes from a B+ donor at 37° C. for 1 hour. Free hemoglobin was measured by spectrophotometer at 412 nm.

The nature of data set [5]: Single-dose toxicology, maximum deliverable dose. The format is in vivo, rat. The note with it: 60 mg [240 mg/kg] i.v.
The subject of data set [6] is hypoxic ischemic brain injury. Format: in vivo, Wistar rat. The following applies: CVF injection before ligation/hypoxia.
Data set [7] relates to complement-mediated hemolysis of transfused huRBCs. As to the kind of experiment: Rat AIHTR model, xenotransfusion of human RBCs. Format: in vivo, Wistar rat. The following applies: prophylaxis; 40 mg PA-dPEG24 vs NS at 5 and 20 minutes (P≤0.05); CVF 130 μg i.p. 24 hours before.
Method: This process generates 1 ml huRBCs at 80% hematocrit, which was given as a 15% transfusion to the rats.
For both experiments, animals allotted to the saline control group received NS prior to huRBC transfusion whereas the CVF group received 130 μg CVF (Complement Technologies, Inc.) intra-peritoneum (LP.) 24 hours prior to the huRBC transfusion.
Using weight-based doses of ketamine and acepromazine, animals were sedated throughout the course of the experiment with periodic monitoring of vital signs. Blood samples were collected into EDTA microtainer tubes (BD) from the animals prior to the huRBC transfusion and then at 30 seconds, 5 minutes, 20 minutes, 60 minutes and 120 minutes after the huRBC transfusion. […]
Flow cytometry was performed on the collected RBCs using a FACS Calibur flow cytometer (Becton Dickinson, Franklin Lakes, NJ) with DXP 8 Color 488/637/407 Upgrade (Cytek Development, Fremont, CA). […] Data was analyzed using FlowJo X version 10.0.7r2 (FlowJo LLC, Ashland, OR). […]
For bilirubin measurements, the pre-bleed and 120 minute plasma samples from the prophylaxis (n=8) and NS (n=7) groups were analyzed for the amount of bilirubin present using the Bilirubin Assay Kit (Sigma-Aldrich, St. Louis, MO) in half the manufacturer's recommend volume. […]

“Also recorded” adds a separate entry of the source. Read-outs that look alike come from different tables or passages of the source.

With `Nc1nc2c(ncn2COCCO)c(=O)[nH]1` [Acyclovir], the “Inhibition of HSV-1 replication” value in the data set on HSV-1 is given as “never able to completely inhibit replication”.

As to `CC[C@H](C)[C@H](N)C(=O)N[C@@H](C)C(=O)N[C@@H](CC(C)C)C(=O)N[C@H](C(=O)N[C@@H](CC(C)C)C(=O)N[C@@H](CCC(=O)O)C(=O)N1CCC[C@H]1C(=O)N[C@H](C(=O)N[C@@H](CS)C(=O)N[C@@H](CS)C(=O)N[C@@H](CCC(N)=O)C(=O)N[C@@H](CCC(=O)O)C(=O)N[C@@H](CCCNC(=N)N)C(=O)N[C@@H](C)C(=O)N[C@@H](C)C(=O)NCCOCCOCCOCCOCCOCCOCCOCCOCCOCCOCCOCCOCCOCCOCCOCCOCCOCCOCCOCCOCCOCCOCCOCCOCCC(=O)O)[C@@H](C)CC)[C@@H](C)CC` [PA-dPEG24], in the data set “Solubility in water”, the Solubility in water result was “Yes”. Further, the hemolysis in data set [1] came out at 2.99%. For the same molecule, in data set [2], the “Hemolysis (%)” value was 2.99%. In [3] (48 Hr (n = 8)), the ALT was 62.8 U/L, the AST is listed as 108 U/L, the AlkPhos came to 104 U/L and the BUN is 17.8 mg/dL. Further, in data set [3] (48 Hr (n = 8)), the Bilirubin amounted to 0.1 mg/dL, the CPK is 538 U/L, the Creatinine is reported as 0.3 mg/dL and the GGT turned out to be 1.0 U/L. In data set [3] (48 Hr (n = 8)), the Lipase was determined as 11.8 U/L, the Platelets is 987 10^3/μL and the RBC is on record as 5.8 10^6/μL. In data set [3] (Day 14 (n = 10)), this molecule gave an ALT of 77.4 U/L, an AST of 111 U/L, an AlkPhos of 115 U/L and a BUN of 13.2 mg/dL. For the same molecule, in [3] (Day 14 (n = 10)), the Bilirubin was found to be 0.1 mg/dL, the CPK came out at 592 U/L, the Creatinine turned out to be 0.3 mg/dL and the GGT was 1.1 U/L. For the same molecule, in data set [3] (Day 14 (n = 10)), the Lipase turned out to be 6.4 U/L, the Platelets is listed as 825 10^3/μL and the RBC was 6.6 10^6/μL. For the same molecule, the Organ histology result in data set [3] (day 3 and day 14) is reported as “no histological evidence for toxicity”. Also, the “Blood chemistry assay results (CBC, superchem, coagulation)” value in data set [3] (pretreatment vs day 3 or day 14) is reported as “no differences”. For the same molecule, in data set [4], the percent inhibition of hemolysis was greater than 95%. Also, in data set [5] (48 Hr (n = 6)), the ALT is reported as 44.0 U/L, the AST was 69.0 U/L, the AlkPhos is reported as 194 U/L and the BUN worked out at 15.8 mg/dL. In [5] (48 Hr (n = 6)), this molecule returned a Bilirubin of 0.1 mg/dL, a CPK of 142 U/L, a Creatinine of 0.3 mg/dL and a GGT of 1 U/L. Besides, in data set [5] (48 Hr (n = 6)), the Lipase is reported as 10.3 U/L, the Platelets is reported as 1045 10^3/μL and the RBC is on record as 5.3 10^6/μL. Further, in data set [5] (Day 7 (n = 6)), the ALT is 76.3 U/L, the AST was found to be 84.3 U/L, the AlkPhos is listed as 147 U/L and the BUN was found to be 13.5 mg/dL. Further, in data set [5] (Day 7 (n = 6)), the Bilirubin is 0.1 mg/dL, the CPK turned out to be 316 U/L, the Creatinine turned out to be 0.4 mg/dL and the GGT was 1 U/L. In data set [5] (Day 7 (n = 6)), the Lipase was found to be 8.5 U/L, the Platelets is 623 10^3/μL and the RBC is 5.8 10^6/μL. In [5] (Day 14 (n = 6)), this molecule yielded an ALT of 55.8 U/L, an AST of 104 U/L, an AlkPhos of 154 U/L and a BUN of 14.7 mg/dL. In [5] (Day 14 (n = 6)), the Bilirubin stood at 0.1 mg/dL, the CPK came out at 580 U/L, the Creatinine is 0.4 mg/dL and the GGT is recorded as 1 U/L. The molecule further yielded a Lipase in data set [5] (Day 14 (n = 6)) of 9.7 U/L. Further, the “Blood work (CBC and complete blood chemistry) toxicities” value in data set [5] (first 24 hours, 48 hours, day 7 or day 14) was “No toxicities”.

For the molecule cobra venom factor [CVF], the “Systemic complement activity and brain injury” value in data set [6] is on record as “almost completely eliminated; also recorded: almost completely attenuated brain injury”. Also, the “Free hemoglobin in plasma” value in [7] is reported as “low levels of free hemoglobin”.
